Legend:
[1] = tested on: potato blight Phytophthora infestans; assay type: in vivo; details: 2000 ppm; 5 days; controls less than 5%
[2] = tested on: barley powdery mildew Erysiphe graminis; assay: Barley powdery mildew control on barley plants; assay type: in vivo; details: 2000 ppm; soil and leaves; 10 days; controls less than 5%
Pythium ultimum [3] = assay: Cabbage seedling emergence in soil infected with Pythium ultimum; assay type: in vivo, Pythium ultimum (on cabbage, variety Flower of Spring); details: 300 ppm; 6 days, 25° C.; 0-8 scale (Examples 233, 234, 268)
Description: (§1) A one week old maize meal/sand culture of the damping-off disease organism Pythium ultimum was thoroughly mixed by hand with clean sterile John Innes No. 1 potting compost in the ratio of 3 kg culture to 12 liters of soil. The infected soil was then left for approximately 18 hours before use. Each of the compounds listed below was ground together with a wetting agent, Tween 20 (1% of final volume), until a solution or fine suspension was produced which was then diluted with distilled water to give 160 ml of solution containing 1500, 500, 150 or 50 ppm active ingredient. 15 ml aliquots of this solution were added to 75 g portions of the soil infected with Pythium ultimum which were contained in small plastic cartons, 60 mm diameter×55 mm high. Fifteen cabbage seeds, variety Flower of Spring, were placed in a circular depression in the treated infected soil, recovered, and the whole sealed with a plastic cap. The cartons were then placed in a constant temperature room at 25° C.±1° C. Four replications per treatment were made with one additional treatment where seeds were sown in soil which was chemically treated only, i.e. there was no infection. This latter treatment was included to measure the direct effect of the chemical on the germination of the seed. After six days the cartons were removed from the controlled temperature chamber and assessed for degree of fungal growth on the soil surface and percentage of seedling emergence. The results of both these assessments are expressed in a 0-8 scale as follows:
(§2) One week old maize meal/sand culture of the damping-off disease organism Pythium ultimum was thoroughly mixed by hand with clean sterile John Innes No. 1 potting compost in the ratio of 3 kg culture to 12 liters of soil. This infected soil was then left for approximately 18 hours before use. The compounds listed in the Table below were each ground with the wetting agent Tween 20 (1% of final volume), until a solution or fine suspension was produced, which was then diluted with distilled water to give 160 ml of solution containing 1500 or 500 parts per million (ppm) active ingredient. 15 ml aliquots of this solution were added to 75 g portions of the soil infected with Pythium ultimum which were contained in small plastic cartons, 60 mm diameter×55 mm high.
(§3) Fifteen cabbage seeds, variety Flower of Spring, were placed in a circular depression in the treated infected soil, recovered, and the whole sealed with a plastic cap. The cartons were then placed in a constant temperature room at 25° C.±1° C. Four replications per treatment were made, with one additional treatment where seeds were sown in soil which was chemically treated only, i.e. there was no infection. This latter treatment was included to measure the direct effect of the chemical on the germination of the seed.
(§4) After six days, the cartons were removed from the controlled temperature chamber and assessed for degree of fungal growth on the soil surface and percentage of seedling emergence. The results of both these assessments are expressed in a 0-8 scale as follows:
(§5) N-(2-oxopropyl)-3',4'-dimethyl-methanesulphonanilide was tested at a dose rate of 300 ppm in the test described in Examples 233 and 234. It gave a mycelial control score of 0 and a germination score of 3 whereas the untreated samples gave a score of 0 for both.

[4] = tested on: rice blast Pyricularia oryzae; assay type: in vivo; details: 2000 ppm; soil and leaves; 7 days; controls less than 5%
Pythium ultimum [5] = assay: Fungal growth on the surface of soil infected with damping-off disease organism; assay type: in vivo; details: 300 ppm; 6 days, 25° C.; 0-8 scale (Examples 233, 234, 268)
Description: as §1, §2, §3, §4, §5

[6] = tested on: cucumber powdery mildew Erysiphe cichoracearum; assay: Cucumber powdery mildew control on cucumber plants; assay type: in vivo; details: 2000 ppm; soil and leaves; 14 days; controls less than 5%
[7] = tested on: vine downy mildew, Plasmopara viticola; assay: Vine downy mildew control on vine plants (application to soil and leaves); assay type: in vivo; details: 2000 ppm, 12 days, controls less than 5%
Description: Aqueous acetone solutions of each of the compounds listed in the Table below, containing 2000 parts per million (ppm), together with 125 ppm of a suitable wetting agent, were applied to the soil surrounding the roots and leaves of vine plants having five fully expanded leaves.
The treated plants, together with controls treated with wetting agent alone, were inoculated 24 hours after the chemical application with an aqueous suspension of sporangia of the disease organism known as vine downy mildew, Plasmopara viticola.

Maize (Zea mays) = assay: Soil incorporation (attaclay/sand dust), growth regulatory or herbicidal effects, maize; assay type: in vivo; details: 504 h, soil incorporation 26 ppm, 21 days, 0=no effect, 100=complete kill, read-out: growth regulatory or herbicidal effect score
Excerpt: (§6) The compounds listed below were each formulated as an attaclay/sand dust and incorporated into John Innes I potting compost at a rate equivalent to 26 parts per million weight/volume of active ingredient to soil and placed in anodised aluminium pans, 19 cm long×9.5 cm wide×5.0 cm deep. This rate is approximately equivalent to a soil surface application of 11.2 kg active ingredient/hectare cultivated to a depth of 5 cm. Seeds of the species listed below were sown in the treated soil, watered and placed in a controlled environment room (22° C.; 65-85% relative humidity; 14 hours per day artificial illumination at 13,000 lux) for 21 days. The plants were then visually assessed for any growth regulatory or herbicidal effects. All differences from an untreated control were scored on a scale from 0-100, where 0 signifies no effect and 100 signifies complete kill.
(§7) The compounds listed below were tested according to the procedure of Examples 56-60 but at 130 parts per million weight/volume of active ingredient to soil. This rate is approximately equivalent to a soil surface application of 56 kg active ingredient per hectare cultivated to a depth of 5 cm.
(§8) The product of Example 95 was tested according to the procedure of Examples 56-60 but at 130 and 26 parts per million weight/volume. The results were as follows:
(§9) N-(2-oxopropyl)-2'-chloro-6'-methyl-methanesulphonanilide, formulated as an attaclay/sand dust, was incorporated in John Innes I potting compost at a rate equivalent to 130 parts per million weight/volume of active ingredient to soil and placed in anodised aluminium pans, 19 cm long×9.5 cm wide×5.0 cm deep. These rates are approximately equivalent to a soil surface application of 56 kg active ingredient per hectare cultivated to a depth of 5 cm. Seeds of Peas, Mustard, Linseed, Maize, Oats and Ryegrass were sown in the treated soil, watered and placed in a controlled environment room (22° C.; 65-85% relative humidity; 14 hours artificial illumination at 13000 lux) for 21 days.
(§10) The plants were then visually assessed for any growth regulatory or herbicidal effects. All differences from an untreated control were scored on a scale from 0-100, where 0 signifies no effect and 100 signifies complete suppression.

[8] = tested on: Linseed (Linum usitatissimum); assay: Post-emergence foliar spray, herbicidal/growth regulant response, linseed; assay type: in vivo; details: 168 h, foliar spray 11.2 kg/ha, 7 days, 0=no effect, 100=complete kill, read-out: herbicidal or growth regulant response index
Description: (§11) Seeds of the plant species listed below were sown in anodised aluminium pans, 19 cm long×9.5 cm wide×5 cm deep, containing John Innes I potting compost. They were then watered and placed in a controlled environment room (22° C.; 65-85% relative humidity; 14 hours per day artificial illumination at 13,000 lux). Fourteen days after sowing, the seedlings received a foliar spray of a compound listed below, formulated as a solution in 1:1 by volume aqueous acetone. The concentration of active ingredient and volume of application were adjusted so as to be equivalent to a rate of 11.2 kg/ha in 450 liters per hectare. After seven days growth in the controlled environment room, the plants were visually assessed for any herbicidal or growth regulant response. All differences from the untreated control were scored according to an index where 0=no effect and 100=complete kill.
(§12) The product of Example 95 was tested according to the procedure of Examples 49-55.

Barley (Hordeum vulgare) = assay: Pre-emergence soil surface spray, barley; assay type: in vivo; details: soil surface spray 2.8 kg/ha, 21 days, 0=no effect, 100=complete kill
Excerpt: (§13) Seeds of the plant species listed below were sown in John Innes I potting compost in aluminium pans, 19 cm long×9.5 cm wide×5.0 cm high, one species per pan. The soil surface was then sprayed with a compound listed below, formulated as a solution in 1:1 by volume aqueous acetone except for the compound of Example 44 which was formulated as an aqueous suspension containing 1000 parts per million of the wetting agent Lissapol NX (nonylphenol/ethylene oxide condensate). Each compound was applied at a rate of 2.8 kg of active ingredient per hectare in 450 liters of spray liquid per hectare. The pans were then watered, and placed in a controlled environment room (22° C., relative humidity 65-85%, 14 hours per day artificial illumination at 17,000 lux) for 21 days. The plants were then visually assessed for any growth regulatory or herbicidal effects. All differences from an untreated control were scored on a scale from 0-100, where 0 signifies no effect and 100 signifies complete kill.

[9] = tested on: Blackgrass (Alopecurus myosuroides); assay: Pre-emergence soil surface spray, blackgrass; assay type: in vivo; details: soil surface spray 2.8 kg/ha, 21 days, 0=no effect, 100=complete kill
Excerpt: as §13

Peas (Pisum sativum) [10] = assay: Post-emergence foliar spray, herbicidal/growth regulant response, peas; assay type: in vivo; details: Lathyrus oleraceus, 168 h, foliar spray 11.2 kg/ha, 7 days, 0=no effect, 100=complete kill, read-out: herbicidal or growth regulant response index
Description: as §11, §12

Wild Oat (Avena fatua) = assay: Pre-emergence soil surface spray, wild oat; assay type: in vivo; details: soil surface spray 2.8 kg/ha, 21 days, 0=no effect, 100=complete kill
Excerpt: as §13

Peas (Pisum sativum) [11] = assay: Soil incorporation (attaclay/sand dust), growth regulatory or herbicidal effects, peas; assay type: in vivo; details: Lathyrus oleraceus, 504 h, soil incorporation 26 ppm, 21 days, 0=no effect, 100=complete kill, read-out: growth regulatory or herbicidal effect score
Excerpt: as §6, §7, §8, §9, §10

[12] = tested on: Linseed (Linum usitatissimum); assay: Soil incorporation (attaclay/sand dust), growth regulatory or herbicidal effects, linseed; assay type: in vivo; details: 504 h, soil incorporation 26 ppm, 21 days, 0=no effect, 100=complete kill, read-out: growth regulatory or herbicidal effect score
Excerpt: as §6, §7, §8, §9, §10

[13] = tested on: Crabgrass (Digitaria sanguinalis); assay: Pre-emergence soil surface spray, crabgrass; assay type: in vivo; details: soil surface spray 2.8 kg/ha, 21 days, 0=no effect, 100=complete kill
Excerpt: as §13

[14] = tested on: Wheat (Triticum aestivum); assay: Pre-emergence soil surface spray, wheat; assay type: in vivo; details: soil surface spray 2.8 kg/ha, 21 days, 0=no effect, 100=complete kill
Excerpt: as §13

Mustard (Sinapis alba) [15] = assay: Post-emergence foliar spray, herbicidal/growth regulant response, mustard; assay type: in vivo; details: 168 h, foliar spray 11.2 kg/ha, 7 days, 0=no effect, 100=complete kill, read-out: herbicidal or growth regulant response index
Description: as §11, §12

Oats (Avena sativa) = assay: Soil incorporation (attaclay/sand dust), growth regulatory or herbicidal effects, oats; assay type: in vivo; details: 504 h, soil incorporation 26 ppm, 21 days, 0=no effect, 100=complete kill, read-out: growth regulatory or herbicidal effect score
Excerpt: as §6, §7, §8, §9, §10

[16] = tested on: French beans (Phaseolus vulgaris); assay: Post-emergence foliar spray, herbicidal/growth regulant response, French beans; assay type: in vivo; details: foliar spray 11.2 kg/ha, 7 days, 0=no effect, 100=complete kill
Description: as §11, §12

[17] = tested on: Ryegrass (Lolium perenne); assay: Post-emergence foliar spray, herbicidal/growth regulant response, ryegrass; assay type: in vivo; details: 168 h, foliar spray 11.2 kg/ha, 7 days, 0=no effect, 100=complete kill, read-out: herbicidal or growth regulant response index
Description: as §11, §12

Mustard (Sinapis alba) [18] = assay: Soil incorporation (attaclay/sand dust), growth regulatory or herbicidal effects, mustard; assay type: in vivo; details: 504 h, soil incorporation 26 ppm, 21 days, 0=no effect, 100=complete kill, read-out: growth regulatory or herbicidal effect score
Excerpt: as §6, §7, §8, §9, §10

[19] = tested on: Sugarbeet (Beta vulgaris); assay: Post-emergence foliar spray, herbicidal/growth regulant response, sugarbeet; assay type: in vivo; details: 168 h, foliar spray 11.2 kg/ha, 7 days, 0=no effect, 100=complete kill, read-out: herbicidal or growth regulant response index
Description: as §11, §12

Oat (Avena sativa) = assay: Post-emergence foliar spray, herbicidal/growth regulant response, oat; assay type: in vivo; details: 168 h, foliar spray 11.2 kg/ha, 7 days, 0=no effect, 100=complete kill, read-out: herbicidal or growth regulant response index
Description: as §11, §12

[20] = tested on: Ryegrass (Lolium perenne); assay: Soil incorporation (attaclay/sand dust), growth regulatory or herbicidal effects, ryegrass; assay type: in vivo; details: 504 h, soil incorporation 26 ppm, 21 days, 0=no effect, 100=complete kill, read-out: growth regulatory or herbicidal effect score
Excerpt: as §6, §7, §8, §9, §10

[21] = tested on: Barnyardgrass (Echinochloa crus-galli); assay: Pre-emergence soil surface spray, barnyardgrass; assay type: in vivo; details: soil surface spray 2.8 kg/ha, 21 days, 0=no effect, 100=complete kill
Excerpt: as §13

## CC(=O)CN(c1ccc(C)c(C)c1)S(C)(=O)=O [Example 272, N-(2-oxopropyl)-3',4'-dimethylmethanesulphonanilide]
[1]
  % Control, potato blight: 62%
[2]
  % Control, barley powdery mildew: 99%
Pythium ultimum [3]
  Germination Score: 3 (45-54% inhibition)
[4]
  % Control, rice blast: 67%
Pythium ultimum [5]
  Mycelial Control Score: 0 (<20% inhibition)

## Cc1cccc(C)c1N(C1CCOC1=O)S(C)(=O)=O (stereo not drawn) [Example 123]
[6]
  % Control, cucumber powdery mildew: 92%
[2]
  % Control, barley powdery mildew: 95%

## Cc1cccc(Cl)c1N(CC1(C)OCCO1)S(C)(=O)=O [Example 230, N-[(2-methyl-1,3-dioxolan-2-yl)methyl]-2'-chloro-6'-methylmethanesulphonanilide]
[7]
  % Control Vine Downing Mildew: 80%

## CCCS(=O)(=O)N(c1c(C)cccc1C)C(C)C(=O)OC(C)C (stereo not drawn) [Example 3]
Maize (Zea mays)
  plant injury at 26 µg/mL: 20%
[8]
  pest or weed control at 11200 g/ha: 30%
Barley (Hordeum vulgare)
  growth regulatory or herbicidal effect score: 0
[9]
  growth regulatory or herbicidal effect score: 90
Peas (Pisum sativum) [10]
  pest or weed control at 11200 g/ha: 5%
Wild Oat (Avena fatua)
  growth regulatory or herbicidal effect score: 80
Peas (Pisum sativum) [11]
  pest or weed control at 26 µg/mL: 0%
[12]
  pest or weed control at 26 µg/mL: 20%
[13]
  growth regulatory or herbicidal effect score: 90
[14]
  growth regulatory or herbicidal effect score: 0
Mustard (Sinapis alba) [15]
  pest or weed control at 11200 g/ha: 90%
Oats (Avena sativa)
  plant injury at 26 µg/mL: 20%
[16]
  herbicidal or growth regulant response index: 80
[17]
  pest or weed control at 11200 g/ha: 15%
Mustard (Sinapis alba) [18]
  pest or weed control at 26 µg/mL: 90%
[19]
  plant injury at 11200 g/ha: 90%
Oat (Avena sativa)
  plant injury at 11200 g/ha: 5%
[20]
  pest or weed control at 26 µg/mL: 90%
[21]
  growth regulatory or herbicidal effect score: 60
